Measured values published in patent publication US12376590B2, “Compositions comprising pyridine carboxylate herbicides and azole carboxylate safeners” (Corteva Agriscience LLC, priority 2018, dated 2025).

Key:
Assay in all cases: Greenhouse postemergence herbicidal safening trial, visual injury after 20-22 d
Conditions in all cases: applied alone
nutsedge (CYPES) = type: in vivo, Cyperus esculentus
Excerpt: (§1) Greenhouse Trial Methodology—Evaluation of Postemergence Herbicidal Safening in Crops
(§2) Seeds of the desired test plant species were planted in a 90:10% v/v (volume/volume) mixture of PRO-MIX® BX (Premier Tech Horticulture, Quakertown, PA, USA) and PROFILE® GREENS GRADE™ (Profile Products LLC, Buffalo Grove, IL, USA) planting mixture, which typically has a pH of 5.2 to 6.2 and an organic matter content of at least 50 percent, in plastic pots with a surface area of 103.2 square centimeters (cm^2). When required to ensure good germination and healthy plants, a fungicide treatment and/or other chemical or physical treatment was applied. The plants were grown for 7-36 days (d) in a greenhouse with an approximate 14-hour (h) photo-period which was maintained at about 23° C. during the day and 22° C. during the night. Nutrients and water were added on a regular basis and supplemental lighting was provided with overhead metal halide 1000-Watt lamps as necessary. The plants were employed for testing when they reached the second or third true leaf stage.
(§3) Emulsifiable concentrates of each of each pyridine carboxylate herbicide (Compound A or Compound B) were prepared at 100 grams acid equivalent per liter (g ae/L). An aliquot of each emulsifiable concentrate was placed in a 25 mL glass vial and diluted with an aqueous mixture of 1.25% (v/v) ACTIROB® B esterified rapeseed oil (Bayer Crop Science, Research Triangle Park, NC, USA) or MSO® Concentrate with LECI-TECH® methylated soybean oil (Loveland Products, Loveland, CO, USA) to obtain concentrated stock solutions at the highest application rate for each herbicide, based upon a 12 milliliter (mL) application volume at a rate of 187 liters per hectare (L/ha). The concentrated stock solutions were further diluted with an aqueous mixture of 1.25% v/v ACTIROB® B or MSO® Concentrate with LECI-TECH® to obtain stock solutions at reduced application rates for each herbicide. Spray solutions of the herbicide combinations (Compound A or Compound B plus safener) were prepared by adding weighed amounts or aliquots of the azole carboxylate safener to the stock solutions of Compound A or Compound B to form 12-mL spray solutions in two-way combinations.
(§4) The spray solutions were applied to the plant material with an overhead Mandel track sprayer equipped with 8002E nozzles calibrated to deliver 187 L/ha over an application area of 0.503 square meters (m^2) at a spray height of 18 inches (43 centimeters (cm)) above the average plant canopy. Control plants were sprayed in the same manner with the solvent blank. All herbicide (component a) application rates are given as “g ae/ha” and all safener (component b) application rates are given as “g ai/ha.”
(§5) The treated plants and control plants were placed in a greenhouse as described above and watered by sub-irrigation to prevent wash-off of the test compounds. After 20-22 d, the condition of the test plants as compared with that of the control plants was determined visually and scored on a scale of 0 to 100 percent where 0 corresponds to no injury and 100 corresponds to complete kill.

barnyardgrass (ECHCG) = type: in vivo, Echinochloa crus-galli
Excerpt: as §1, §2, §3, §4, §5

Italian ryegrass (LOLMU) = type: in vivo, Lolium multiflorum
Excerpt: as §1, §2, §3, §4, §5

Canada thistle (CIRAR) = type: in vivo, Cirsium arvense
Excerpt: as §1, §2, §3, §4, §5

maize (ZEAMX) = type: in vivo, Zea mays
Excerpt: as §1, §2, §3, §4, §5

winter rape (BRSNW) = type: in vivo, Brassica napus
Excerpt: as §1, §2, §3, §4, §5

Canada horseweed (ERICA) = type: in vivo, Erigeron canadensis
Excerpt: as §1, §2, §3, §4, §5

[1] = tested on: common lambsquarters (CHEAL); type: in vivo, Chenopodium album L.
Excerpt: as §1, §2, §3, §4, §5

Johnson grass (SORHA) = type: in vivo, Sorghum halepense
Excerpt: as §1, §2, §3, §4, §5

[2] = tested on: Chinese sprangletop (LEFCH); type: in vivo, Leptochloa chinensis
Excerpt: as §1, §2, §3, §4, §5

wild buckwheat (POLCO) = type: in vivo, Polygonum convolvulus
Excerpt: as §1, §2, §3, §4, §5

soybean (GLXMA) = type: in vivo, Glycine max
Excerpt: as §1, §2, §3, §4, §5

[3] = tested on: herbicide-resistant kochia (KCHSC-R); type: in vivo, Kochia scoparia
Excerpt: as §1, §2, §3, §4, §5

kochia (KCHSC) = type: in vivo, Kochia scoparia
Excerpt: as §1, §2, §3, §4, §5

common rice (ORYSA) = type: in vivo, Oryza sativa
Excerpt: as §1, §2, §3, §4, §5

common sunflower (HELAN) = type: in vivo, Helianthus annuus
Excerpt: as §1, §2, §3, §4, §5

velvetleaf (ABUTH) = type: in vivo, Abutilon theophrasti
Excerpt: as §1, §2, §3, §4, §5

giant foxtail (SETFA) = type: in vivo, Setaria faberi
Excerpt: as §1, §2, §3, §4, §5

large crabgrass (DIGSA) = type: in vivo, Digitaria sanguinalis
Excerpt: as §1, §2, §3, §4, §5

pigweed (AMARE) = type: in vivo, Amaranthus retroflexus
Excerpt: as §1, §2, §3, §4, §5

winter wheat (TRZAW) = type: in vivo, Triticum aestivum
Excerpt: as §1, §2, §3, §4, §5

blackgrass (ALOMY) = type: in vivo, Alopecurus myosuroides
Excerpt: as §1, §2, §3, §4, §5

wild pansy (VIOTR) = type: in vivo, Viola tricolor
Excerpt: as §1, §2, §3, §4, §5

wild oat (AVEFA) = type: in vivo, Avena fatua
Excerpt: as §1, §2, §3, §4, §5

[4] = tested on: ivyleaf morningglory (IPOHE); type: in vivo, Ipomoea hederacea
Excerpt: as §1, §2, §3, §4, §5

Measured: % visual injury Ob

O=C(O)c1nc(C(Cl)(Cl)Cl)n(-c2ccc(Cl)cc2Cl)n1 [Fenchlorazole, fenchlorazole]
0%: nutsedge (CYPES); 20 g/ha | nutsedge (CYPES); 40 g/ha | nutsedge (CYPES); 80 g/ha | barnyardgrass (ECHCG); 20 g/ha | barnyardgrass (ECHCG); 40 g/ha | barnyardgrass (ECHCG); 80 g/ha | Italian ryegrass (LOLMU); 20 g/ha | Italian ryegrass (LOLMU); 40 g/ha | Italian ryegrass (LOLMU); 80 g/ha | Canada thistle (CIRAR); 20 g/ha | Canada thistle (CIRAR); 40 g/ha | Canada thistle (CIRAR); 80 g/ha | maize (ZEAMX); 20 g/ha | maize (ZEAMX); 40 g/ha | maize (ZEAMX); 80 g/ha | winter rape (BRSNW); 20 g/ha | winter rape (BRSNW); 40 g/ha | winter rape (BRSNW); 80 g/ha | Canada horseweed (ERICA); 20 g/ha | Canada horseweed (ERICA); 40 g/ha | Canada horseweed (ERICA); 80 g/ha | [1]; 20 g/ha | [1]; 40 g/ha | [1]; 80 g/ha | Johnson grass (SORHA); 20 g/ha | Johnson grass (SORHA); 40 g/ha | Johnson grass (SORHA); 80 g/ha | [2]; 20 g/ha | [2]; 40 g/ha | [2]; 80 g/ha | wild buckwheat (POLCO); 20 g/ha | wild buckwheat (POLCO); 40 g/ha | wild buckwheat (POLCO); 80 g/ha | soybean (GLXMA); 20 g/ha | soybean (GLXMA); 40 g/ha | soybean (GLXMA); 80 g/ha | [3]; 20 g/ha | [3]; 40 g/ha | [3]; 80 g/ha | kochia (KCHSC); 20 g/ha | kochia (KCHSC); 40 g/ha | kochia (KCHSC); 80 g/ha | common rice (ORYSA); 20 g/ha | common rice (ORYSA); 40 g/ha | common rice (ORYSA); 80 g/ha | common sunflower (HELAN); 20 g/ha | common sunflower (HELAN); 40 g/ha | common sunflower (HELAN); 80 g/ha | velvetleaf (ABUTH); 20 g/ha | velvetleaf (ABUTH); 40 g/ha | velvetleaf (ABUTH); 80 g/ha | giant foxtail (SETFA); 20 g/ha | giant foxtail (SETFA); 40 g/ha | giant foxtail (SETFA); 80 g/ha | large crabgrass (DIGSA); 20 g/ha | large crabgrass (DIGSA); 40 g/ha | large crabgrass (DIGSA); 80 g/ha | pigweed (AMARE); 20 g/ha | pigweed (AMARE); 40 g/ha | pigweed (AMARE); 80 g/ha | winter wheat (TRZAW); 20 g/ha | winter wheat (TRZAW); 40 g/ha | winter wheat (TRZAW); 80 g/ha | blackgrass (ALOMY); 20 g/ha | blackgrass (ALOMY); 40 g/ha | blackgrass (ALOMY); 80 g/ha | wild pansy (VIOTR); 20 g/ha | wild pansy (VIOTR); 40 g/ha | wild pansy (VIOTR); 80 g/ha | wild oat (AVEFA); 20 g/ha | wild oat (AVEFA); 40 g/ha | wild oat (AVEFA); 80 g/ha | [4]; 20 g/ha | [4]; 40 g/ha | [4]; 80 g/ha
